From patent publication US9364467B2 (Salix Pharmaceuticals, Ltd, priority 2012, dated 2016)
In brackets after ≈: the same amount, converted by molar mass. Read-outs that look alike come from different tables or passages of the source.

System: Enterobacteriaceae spp. strains
Experiment: In vitro activity (MIC) against Enterobacteriaceae spp. strains

`CO[C@H]1/C=C/O[C@@]2(C)Oc3c(C)c(O)c4c(O)c(c5c(nc6cc(C)ccn65)c4c3C2=O)NC(=O)/C(C)=C\C=C\[C@H](C)[C@H](O)[C@@H](C)[C@@H](O)[C@@H](C)[C@H](OC(C)=O)[C@@H]1C` [Rifaximin, reference compound] showed an MIC of 32 µg/mL (≈ 40.7 µM), an MIC50 of 32 µg/mL (≈ 40.7 µM) and an MIC90 of 32 µg/mL (≈ 40.7 µM). For the same compound, the MIC (Citrobacter freundii, C. freundii 57) was 16 µg/mL (≈ 20.4 µM), the MIC (Citrobacter freundii, C. freundii 58) was 32 µg/mL (≈ 40.7 µM) and the MIC (Citrobacter freundii, C. freundii 65) was 32 µg/mL (≈ 40.7 µM). The MIC (Citrobacter freundii, C. freundii 68) was 32 µg/mL (≈ 40.7 µM), the MIC (Citrobacter freundii, C. freundii 69) was 32 µg/mL (≈ 40.7 µM) and the MIC (Citrobacter freundii, C. freundii 1070) was 32 µg/mL (≈ 40.7 µM). It also gave an MIC (Citrobacter freundii, C. freundii 1073) of 32 µg/mL (≈ 40.7 µM), an MIC (Citrobacter freundii, C. freundii 1075) of 32 µg/mL (≈ 40.7 µM) and an MIC (Enterobacter cloacae, E. cloacae 1) of 32 µg/mL (≈ 40.7 µM). For the same compound, the MIC (Enterobacter cloacae, E. cloacae 3) was 32 µg/mL (≈ 40.7 µM), the MIC (Enterobacter cloacae, E. cloacae 8) was 32 µg/mL (≈ 40.7 µM) and the MIC (Enterobacter cloacae, E. cloacae 12) was 32 µg/mL (≈ 40.7 µM). It also gave an MIC (Enterobacter cloacae, E. cloacae 13) of 32 µg/mL (≈ 40.7 µM), an MIC (Enterobacter cloacae, E. cloacae 14) of 32 µg/mL (≈ 40.7 µM) and an MIC (Enterobacter cloacae, E. cloacae 16) of 32 µg/mL (≈ 40.7 µM). The MIC (Enterobacter cloacae, E. cloacae 20) was 32 µg/mL (≈ 40.7 µM), the MIC (Enterobacter cloacae, E. cloacae 321) was 32 µg/mL (≈ 40.7 µM) and the MIC (Enterobacter cloacae, E. cloacae 348) was 32 µg/mL (≈ 40.7 µM). For the same compound, the MIC (Enterobacter cloacae, E. cloacae 349) was 32 µg/mL (≈ 40.7 µM), the MIC (Enterobacter cloacae, E. cloacae 358) was 32 µg/mL (≈ 40.7 µM) and the MIC (Enterobacter cloacae, E. cloacae 367) was 32 µg/mL (≈ 40.7 µM). The MIC (Enterobacter cloacae, E. cloacae 369) was 32 µg/mL (≈ 40.7 µM), the “Range (MIC)” value (Enterobacteriaceae spp. strains) was 8 to 32 µg/mL and the MIC (Escherichia coli, ATCC E. Coli 25922) was 16 µg/mL (≈ 20.4 µM). For the same compound, the MIC (Escherichia coli, E. coli 6) was 32 µg/mL (≈ 40.7 µM), the MIC (Escherichia coli, E. coli 15) was 16 µg/mL (≈ 20.4 µM) and the MIC (Escherichia coli, E. coli 34) was 32 µg/mL (≈ 40.7 µM). It also gave an MIC (Escherichia coli, E. coli 37) of 8 µg/mL (≈ 10.2 µM), an MIC (Escherichia coli, E. coli 41) of 16 µg/mL (≈ 20.4 µM) and an MIC (Escherichia coli, E. coli 43) of 16 µg/mL (≈ 20.4 µM). It also gave an MIC (Escherichia coli, E. coli 44) of 16 µg/mL (≈ 20.4 µM), an MIC (Escherichia coli, E. coli 46) of 16 µg/mL (≈ 20.4 µM) and an MIC (Escherichia coli, E. coli 47) of 32 µg/mL (≈ 40.7 µM). It also gave an MIC (Escherichia coli, E. coli 48) of 32 µg/mL (≈ 40.7 µM), an MIC (Escherichia coli, E. coli 49) of 32 µg/mL (≈ 40.7 µM) and an MIC (Escherichia coli, E. coli 56) of 32 µg/mL (≈ 40.7 µM). The MIC (Escherichia coli, E. coli 62) was 32 µg/mL (≈ 40.7 µM), the MIC (Escherichia coli, E. coli 71) was 8 µg/mL (≈ 10.2 µM) and the MIC (Escherichia coli, E. coli 90) was 16 µg/mL (≈ 20.4 µM). The MIC (Escherichia coli, E. coli 92) was 32 µg/mL (≈ 40.7 µM), the MIC (Escherichia coli, E. coli 93) was 32 µg/mL (≈ 40.7 µM) and the MIC (Escherichia coli, E. coli 95) was 32 µg/mL (≈ 40.7 µM). The MIC (Escherichia coli, E. coli 96) was 8 µg/mL (≈ 10.2 µM), the MIC (Escherichia coli, E. coli 97) was 32 µg/mL (≈ 40.7 µM) and the MIC (Escherichia coli, E. coli 100) was 32 µg/mL (≈ 40.7 µM). For the same compound, the MIC (Escherichia coli, E. coli 102) was 16 µg/mL (≈ 20.4 µM), the MIC (Escherichia coli, E. coli 103) was 32 µg/mL (≈ 40.7 µM) and the MIC (Escherichia coli, E. coli 109) was 32 µg/mL (≈ 40.7 µM). The MIC (Escherichia coli, E. coli 110) was 32 µg/mL (≈ 40.7 µM), the MIC (Escherichia coli, E. coli 112) was 32 µg/mL (≈ 40.7 µM) and the MIC (Escherichia coli, E. coli 113) was 32 µg/mL (≈ 40.7 µM). For the same compound, the MIC (Escherichia coli, E. coli 117) was 16 µg/mL (≈ 20.4 µM), the MIC (Escherichia coli, E. coli 118) was 32 µg/mL (≈ 40.7 µM) and the MIC (Escherichia coli, E. coli 120) was 32 µg/mL (≈ 40.7 µM). It also gave an MIC (Escherichia coli, E. coli 140) of 32 µg/mL (≈ 40.7 µM), an MIC (Escherichia coli, E. coli 171) of 32 µg/mL (≈ 40.7 µM) and an MIC (Escherichia coli, E. coli 342) of 32 µg/mL (≈ 40.7 µM). It also gave an MIC (Escherichia coli, E. coli 343) of 32 µg/mL (≈ 40.7 µM), an MIC (Escherichia coli, E. coli 345) of 32 µg/mL (≈ 40.7 µM) and an MIC (Escherichia coli, E. coli 349) of 32 µg/mL (≈ 40.7 µM). It also gave an MIC (Escherichia coli, E. coli 351) of 32 µg/mL (≈ 40.7 µM), an MIC (Klebsiella aerogenes, E. aerogenes 235) of 32 µg/mL (≈ 40.7 µM) and an MIC (Klebsiella aerogenes, E. aerogenes 281) of 32 µg/mL (≈ 40.7 µM). It also gave an MIC (Klebsiella aerogenes, E. aerogenes 290) of 32 µg/mL (≈ 40.7 µM).
